Data taken from patent US10598672B2, “Methods and compositions for diagnosing and treating loss and/or distortion of taste or smell” (Cyrano Therapeutics, Inc., priority 2014, dated 2020).

What was measured:
hyposmic patients = assay: Subjective responses in smell, flavor and taste function (1-100 scale) after oral theophylline; type: in vivo, human
Description: The term “subjective improvement” as used herein and its grammatical equivalents can refer to measurements of improvement in perception for all external odors based upon a scale of 1-100 with 100 indicating complete recovery of normal smell function with responses from 1-100 scaled appropriately. […] Subjective improvement in taste function can also be measured with changes in taste for salt, sweet, sour and bitter tastants measured on the same 1-100 scale with 100 indicating return to normal for each of the four tastants considered and responses <100 scaled consistently less.
Thirty-one of the hyposmic patients were treated with oral theophylline with a dose range of 200-800 mg taken over a period of 2-10 months. These patients were 18 men, aged 12-78 y, 62+5 y, with six with PIHH, 10 with allergic rhinitis, one with congenital smell loss and one post anesthesia and 13 women, aged 12-67 y, 42±6 y, with four with PIHH, one with allergic rhinitis and eight with congenital smell loss. Improvement in smell function consisted of improvement in both subjective responses to oral theophylline and in olfactometry. Subjective improvement in smell function consisted of measurements of improvement in perception for all external odors based upon a scale of 1-100 with 100 indicating complete recovery of normal smell function with responses from 1-100 scaled appropriately. […] Subjective improvement in taste function was also measured with changes in taste for salt, sweet, sour and bitter tastants measured on the same 1-100 scale with 100 indicating return to normal for each of the four tastants considered and responses <100 scaled consistently less. Improvement by olfactometry was indicated by decreased DT or RT (increased sensitivity), increased ME (increased sensitivity) and changes in H consistent with decreased distortions.

[1] = Serum theophylline level by fluorescence polarization; type: in vivo, human
Procedure: Serum theophylline levels were measured by fluorescence polarization at each treatment condition. Body weight was measured with a calibrated clinical scale during each study condition and reported at the final measurement in each study condition.

[2] = 31 patients, oral theophylline, listed as ORAL THEOPHYLLINE
[3] = 31 patients, oral theophylline, listed as oral theophylline
[4] = oral theophylline, scale 1-100, listed as ORAL THEOPHYLLINE
[5] = oral theophylline, scale 1-100, listed as oral theophylline

SMILES: Cn1c(=O)c2[nH]cnc2n(C)c1=O [theophylline]
- FLAVOR FUNCTION IMPROVED, number of patients (hyposmic patients; 31 patients, oral theophylline): 19
- FLAVOR FUNCTION NOT IMPROVED, % of patients studied (hyposmic patients; 31 patients, oral theophylline): [39] %
- FLAVOR FUNCTION NOT IMPROVED, number of patients (hyposmic patients; 31 patients, oral theophylline): 12
- SMELL FUNCTION NOT IMPROVED, % of patients studied (hyposmic patients; 31 patients, oral theophylline): [39] %
- SMELL FUNCTION NOT IMPROVED, number of patients (hyposmic patients; 31 patients, oral theophylline): 12
- TASTE FUNCTION IMPROVED, number of patients (hyposmic patients; 31 patients, oral theophylline): 20
- TASTE FUNCTION NOT IMPROVED, % of patients studied (hyposmic patients; 31 patients, oral theophylline): [36] %
- TASTE FUNCTION NOT IMPROVED, number of patients (hyposmic patients; 31 patients, oral theophylline): 11
- SMELL FUNCTION IMPROVED, number of patients (hyposmic patients; 31 patients, oral theophylline 200-800 mg for 2-10 months): 19
- SMELL FUNCTION IMPROVED, % of patients studied (hyposmic patients; 31 patients, oral theophylline 200-800 mg for 2-10 months, listed as ORAL THEOPHYLLINE): [61] %
- SMELL FUNCTION IMPROVED, % of patients studied (hyposmic patients; 31 patients, oral theophylline 200-800 mg for 2-10 months, listed as oral theophylline): 61%
- FLAVOR FUNCTION IMPROVED, % of patients studied (hyposmic patients; [2]): [61] %
- TASTE FUNCTION IMPROVED, % of patients studied (hyposmic patients; [2]): [64]^d %
- FLAVOR FUNCTION IMPROVED, % of patients studied (hyposmic patients; [3]): 61%
- TASTE FUNCTION IMPROVED, % of patients studied (hyposmic patients; [3]): 64%
- SMELL FUNCTION IMPROVED, RESPONSE RANGE (hyposmic patients; improved patients (19), scale 1-100): 2-100%
- SMELL FUNCTION IMPROVED, RESPONSE Mean ± SEM (hyposmic patients; improved patients (19), scale 1-100, listed as ORAL THEOPHYLLINE): 34 ± 6%
- SMELL FUNCTION IMPROVED, RESPONSE Mean ± SEM (hyposmic patients; improved patients (19), scale 1-100, listed as oral theophylline): 34±6%
- FLAVOR FUNCTION NOT IMPROVED, RESPONSE Mean ± SEM (hyposmic patients; oral theophylline): 0
- FLAVOR FUNCTION NOT IMPROVED, RESPONSE RANGE (hyposmic patients; oral theophylline): 0%
- SMELL FUNCTION IMPROVED MEN, number of patients (hyposmic patients; oral theophylline): 11
- SMELL FUNCTION NOT IMPROVED, RESPONSE Mean ± SEM (hyposmic patients; oral theophylline): 0
- SMELL FUNCTION NOT IMPROVED, RESPONSE RANGE (hyposmic patients; oral theophylline): 0%
- TASTE FUNCTION NOT IMPROVED, RESPONSE Mean ± SEM (hyposmic patients; oral theophylline): 0
- TASTE FUNCTION NOT IMPROVED, RESPONSE RANGE (hyposmic patients; oral theophylline): 0%
- FLAVOR FUNCTION IMPROVED, RESPONSE Mean ± SEM (hyposmic patients; oral theophylline, scale 1-100): 43 ± 8
- FLAVOR FUNCTION IMPROVED, RESPONSE RANGE (hyposmic patients; oral theophylline, scale 1-100): 1-100%
- SMELL FUNCTION IMPROVED MEN, RESPONSE RANGE (hyposmic patients; oral theophylline, scale 1-100): 3-95%
- SMELL FUNCTION IMPROVED WOMEN, RESPONSE RANGE (hyposmic patients; oral theophylline, scale 1-100): 2-100%
- TASTE FUNCTION IMPROVED, RESPONSE Mean ± SEM (hyposmic patients; oral theophylline, scale 1-100): 47 ± 8
- TASTE FUNCTION IMPROVED, RESPONSE RANGE (hyposmic patients; oral theophylline, scale 1-100): 3-100%
- SMELL FUNCTION IMPROVED MEN, RESPONSE Mean ± SEM (hyposmic patients; [4]): 27 ± 9%
- SMELL FUNCTION IMPROVED WOMEN, RESPONSE Mean ± SEM (hyposmic patients; [4]): 43 ± 17%
- SMELL FUNCTION IMPROVED MEN, RESPONSE Mean ± SEM (hyposmic patients; [5]): 27±9%
- SMELL FUNCTION IMPROVED WOMEN, RESPONSE Mean ± SEM (hyposmic patients; [5]): 43±17%
- SMELL FUNCTION IMPROVED WOMEN, number of patients (hyposmic patients; oral theophylline, listed as ORAL THEOPHYLLINE): 8
- SMELL FUNCTION IMPROVED WOMEN, number of patients (hyposmic patients; oral theophylline, listed as oral theophylline): eight
- mean (SEM) serum theophylline level ([1]; during oral treatment, at time of maximum improvement, 10 patients): 6.4 (2.0) mg/L
- concentration at 4 weeks ([1]; human, serum, other: intranasal, 20 μg per naris, during intranasal treatment): 0 ng/mL
